Source: US5420335A, “Parenteral nutrients based on watersoluble glycerol bisacetoacetates” (priority 1993, dated 1995)
Values joined by “and” are separate entries in the source; they are usually repeats but may differ in a detail not shown here. Identical values can stand only once. “Also recorded” adds a separate entry of the source.

Legend:
Format in all cases: in vivo, rat (male Sprague-Dawley)
[1] = Daily body weight of intravenously infused rats
Method: Water was available ad libitum at all times.
The vein was then ligated dorsally to the catheter. […] Body weights were measured daily.
(§1) Infusate volume, oral food intake, body weight and urinary volume and total nitrogen were monitored daily for each rat. Infusate volume and food intake were determined by weighing the appropriate container at the start and end of each 24 hr. period. Measurements were recorded between 9 and 10 AM each day. At the end of the 7th day, rats were sacrificed, and blood and liver were harvested. Plasma was separated for measurement of free fatty acids, glucose, and ketone bodies. Liver was weighed and a sample was fixed in buffered formalin for gross histology.
(§2) The data were analyzed for significance by the one-way analysis of variance with repeated measures and comparing the effect of dietary treatment on each day. […] The null hypothesis was concluded invalid if p≤0.05. The analysis of variance was computed on a SAS statistical package.
This compound has an estimated energy density of 4.86 kcal/gram based on thermodynamic data from similar compounds.

[2] = Liver weight after 7 days of infusion; details: for Liver/100 GM: as percentage of body weight
Method: as §1
The data were analyzed for significance by the one-way analysis of variance with repeated measures and comparing the effect of dietary treatment on each day. […] The null hypothesis was concluded invalid if p≤0.05. The analysis of variance was computed on a SAS statistical package. […]

[3] = Plasma free fatty acids, glucose and ketone bodies after 7 days of infusion; details: for T.KB: total ketone bodies
Method: as §1, §2

[4] = Oral dietary nitrogen (food) intake of intravenously infused rats
[5] = Table 5, Example 2, plasma, end of day 7, average of 7 rats
[6] = Table 5, Example 2, plasma, end of day 7, individual rat
[7] = Table 11, Example 4, plasma, average
[8] = Table 11, Example 4, plasma, individual rat

OC[C@H]1OC(O)[C@H](O)[C@@H](O)[C@@H]1O (stereo partly drawn) [Glucose, glucose, reference compound]
Daily Body Weight ([1]; Table 4, Example 2, day 6, average of 7 rats): 255 Grams | Daily Body Weight ([1]; Table 4, Example 2, day 6, individual rat): 257 Grams and 230 Grams and 274 Grams and 220 Grams and 238 Grams and 293 Grams | Daily Body Weight ([1]; Table 4, Example 2, day 7, average of 7 rats): 249 Grams | Daily Body Weight ([1]; Table 4, Example 2, day 7, individual rat): 245 Grams and 228 Grams and 251 Grams and 226 Grams and 230 Grams and 268 Grams and 297 Grams | Daily Body Weight ([1]; Table 10, Example 4, day 0, average of 9 rats): 252 Grams | Daily Body Weight ([1]; Table 10, Example 4, day 0, individual rat): 254 Grams and 288 Grams and 263 Grams and 251 Grams and 227 Grams and 260 Grams and 249 Grams and 233 Grams and 247 Grams | Daily Body Weight ([1]; Table 10, Example 4, day 1, average of 9 rats): 249 Grams | Daily Body Weight ([1]; Table 10, Example 4, day 1, individual rat): 247 Grams and 292 Grams and 256 Grams and 225 Grams and 259 Grams and 241 Grams and 227 Grams and 244 Grams | Daily Body Weight ([1]; Table 10, Example 4, day 2, average of 9 rats): 252 Grams | Daily Body Weight ([1]; Table 10, Example 4, day 2, individual rat): 261 Grams and 290 Grams and 267 Grams and 246 Grams and 224 Grams and 259 Grams and 237 Grams and 235 Grams and 245 Grams | Daily Body Weight ([1]; Table 10, Example 4, day 3, average of 9 rats): 251 Grams | Daily Body Weight ([1]; Table 10, Example 4, day 3, individual rat): 260 Grams and 292 Grams and 269 Grams and 240 Grams and 227 Grams and 264 Grams and 244 Grams and 234 Grams and 229 Grams | Daily Body Weight ([1]; Table 10, Example 4, day 4, average of 9 rats): 258 Grams | Daily Body Weight ([1]; Table 10, Example 4, day 4, individual rat): 263 Grams and 297 Grams and 273 Grams and 239 Grams and 234 Grams and 282 Grams and 248 Grams and 245 Grams | Daily Body Weight ([1]; Table 10, Example 4, day 5, average of 9 rats): 257 Grams | Daily Body Weight ([1]; Table 10, Example 4, day 5, individual rat): 268 Grams and 298 Grams and 270 Grams and 237 Grams and 239 Grams and 250 Grams and 241 Grams | Daily Body Weight ([1]; Table 10, Example 4, day 6, average of 9 rats): 263 Grams | Daily Body Weight ([1]; Table 10, Example 4, day 6, individual rat): 263 Grams and 302 Grams and 267 Grams and 241 Grams and 259 Grams and 268 Grams and 254 Grams and 245 Grams and 271 Grams | Daily Body Weight ([1]; Table 10, Example 4, day 7, average of 9 rats): 259 Grams | Daily Body Weight ([1]; Table 10, Example 4, day 7, individual rat): 264 Grams and 305 Grams and 272 Grams and 237 Grams and 247 Grams and 261 Grams and 249 Grams and 244 Grams and 255 Grams | Liver/100 GM ([2]; Table 5, Example 2, average of 7 rats): 3.220 | Liver/100 GM ([2]; Table 5, Example 2, individual rat): 2.600 and 3.333 and 3.255 and 4.208 and 3.057 and 3.004 and 3.081 | Liver Wt. ([2]; Table 5, Example 2, end of day 7, average of 7 rats): 7.983 Grams | Liver Wt. ([2]; Table 5, Example 2, end of day 7, individual rat): 6.37 Grams and 7.6 Grams and 8.17 Grams and 9.51 Grams and 7.03 Grams and 8.05 Grams and 9.15 Grams | Liver/100 GM ([2]; Table 11, Example 4, average): 3.636 | Liver/100 GM ([2]; Table 11, Example 4, individual rat): 3.116 and 3.748 and 3.4975 and 3.789 and 4.01 and 4.617 and 3.403 and 3.377 and 3.169 | Liver Wt. ([2]; Table 11, Example 4, end of day 7, average): 9.433 | Liver Wt. ([2]; Table 11, Example 4, end of day 7, individual rat): 8.2264 and 11.4311 and 9.5132 and 8.9798 and 9.9056 and 12.0506 and 8.4742 and 8.2387 and 8.0815 | liver weight and percentage liver weight ([2]; in words, end of day 7): similarity between glucose infused and experimental compound infused rats liver | ACAC [3, 5]: 0.088 mmol/L | BOHB [3, 5]: 0.505 mmol/L | FFa [3, 5]: 0.564 mmol/L | Glucose [3, 5]: 185.423 mg/dL | ACAC [3, 6]: 0.020 mmol/L and 0.066 mmol/L and 0.194 mmol/L and 0.096 mmol/L and 0.017 mmol/L and 0.031 mmol/L | BOHB [3, 6]: 0.385 mmol/L and 0.476 mmol/L and 0.533 mmol/L and 0.332 mmol/L and 0.358 mmol/L and 1.086 mmol/L and 0.363 mmol/L | FFa [3, 6]: 0.337 mmol/L and 0.976 mmol/L and 0.850 mmol/L and 0.816 mmol/L and 0.168 mmol/L and 0.483 mmol/L and 0.316 mmol/L | Glucose [3, 6]: 196.840 mg/dL and 161.300 mg/dL and 162.620 mg/dL and 164.800 mg/dL and 237.100 mg/dL and 228.500 mg/dL | T.KB [3, 5]: 0.593 mmol/L | T.KB [3, 6]: 0.405 mmol/L and 0.542 mmol/L and 0.727 mmol/L and 0.427 mmol/L and 0.375 mmol/L and 1.280 mmol/L and 0.394 mmol/L | ACAC [3, 7]: 0.029 mmol/L | BOHB [3, 7]: 0.512 mmol/L | Glucose [3, 7]: 214.433 mg/dL | Total FFA [3, 7]: 0.341 mmol/L | ACAC [3, 8]: 0.0085 mmol/L and 0.1195 mmol/L and 0.0177 mmol/L and 0.0095 mmol/L and 0.0038 mmol/L and 0.0145 mmol/L | BOHB [3, 8]: 0.5282 mmol/L and 0.5088 mmol/L and 0.5936 mmol/L and 0.2075 mmol/L and 0.6958 mmol/L and 0.6475 mmol/L and 0.3727 mmol/L and 0.4066 mmol/L and 0.651 mmol/L | Glucose [3, 8]: 263.3 mg/dL and 203.5 mg/dL and 429.3 mg/dL and 208 mg/dL and 284.8 mg/dL and 163.5 mg/dL and 124.9 mg/dL and 116.6 mg/dL | Total FFA [3, 8]: 0.327 mmol/L and 0.231 mmol/L and 0.462 mmol/L and 0.434 mmol/L and 0.525 mmol/L and 0.303 mmol/L and 0.206 mmol/L and 0.395 mmol/L and 0.19 mmol/L | blood / plasma glucose ([3]; in words, end of day 7): significantly elevatea plasma glucose; also recorded: higher for glucose infused rats than for the other two groups | free fatty acid concentration ([3]; in words, plasma, end of day 7): not different for the three groups | Dietary Nitrogen Intake ([4]; Table 1, Example 2, day 1, average of 7 rats): 203 MG N | Dietary Nitrogen Intake ([4]; Table 1, Example 2, day 2, average of 7 rats): 302 MG N | Dietary Nitrogen Intake ([4]; Table 1, Example 2, day 3, average of 7 rats): 291 MG N | Dietary Nitrogen Intake ([4]; Table 1, Example 2, day 4, average of 7 rats): 322 MG N | Dietary Nitrogen Intake ([4]; Table 1, Example 2, day 5, average of 7 rats): 290 MG N | Dietary Nitrogen Intake ([4]; Table 1, Example 2, day 7, average of 7 rats): 354 MG N | Dietary Nitrogen Intake ([4]; Table 7, Example 4, oral only, day 1, average of 9 rats): 279 MG N | Dietary Nitrogen Intake ([4]; Table 7, Example 4, oral only, day 1, individual rat): 500.08 MG N and 388.22 MG N and 164.5 MG N and 151.34 MG N and 78.96 MG N and 421.12 MG N and 329 MG N and 98.7 MG N and 375.06 MG N | Dietary Nitrogen Intake ([4]; Table 7, Example 4, oral only, day 2, average of 9 rats): 369 MG N | Dietary Nitrogen Intake ([4]; Table 7, Example 4, oral only, day 2, individual rat): 519.82 MG N and 513.24 MG N and 500.08 MG N and 98.7 MG N and 269.78 MG N and 434.28 MG N and 342.16 MG N and 243.46 MG N and 401.38 MG N | Dietary Nitrogen Intake ([4]; Table 7, Example 4, oral only, day 3, average of 9 rats): 323 MG N | Dietary Nitrogen Intake ([4]; Table 7, Example 4, oral only, day 3, individual rat): 355.32 MG N and 388.22 MG N and 394.8 MG N and 151.34 MG N and 467.18 MG N and 407.96 MG N and 197.4 MG N | Dietary Nitrogen Intake ([4]; Table 7, Example 4, oral only, day 4, average of 9 rats): 372 MG N | Dietary Nitrogen Intake ([4]; Table 7, Example 4, oral only, day 4, individual rat): 506.66 MG N and 401.38 MG N and 342.16 MG N and 427.7 MG N and 85.54 MG N and 282.94 MG N and 480.34 MG N and 486.92 MG N and 335.58 MG N | Dietary Nitrogen Intake ([4]; Table 7, Example 4, oral only, day 5, average of 9 rats): 379 MG N | Dietary Nitrogen Intake ([4]; Table 7, Example 4, oral only, day 5, individual rat): 493.5 MG N and 421.12 MG N and 368.48 MG N and 335.58 MG N and 0 MG N and 427.7 MG N and 454.02 MG N | Dietary Nitrogen Intake ([4]; Table 7, Example 4, oral only, day 6, average of 9 rats): 382 MG N | Dietary Nitrogen Intake ([4]; Table 7, Example 4, oral only, day 6, individual rat): 500.08 MG N and 454.02 MG N and 375.06 MG N and 329 MG N and 0 MG N and 394.8 MG N and 421.12 MG N and 447.44 MG N and 519.82 MG N | Dietary Nitrogen Intake ([4]; Table 7, Example 4, oral only, day 7, average of 9 rats): 381 MG N | Dietary Nitrogen Intake ([4]; Table 7, Example 4, oral only, day 7, individual rat): 421.12 MG N and 414.54 MG N and 355.32 MG N and 32.9 MG N and 401.38 MG N and 473.76 MG N and 407.96 MG N and 500.08 MG N
